Test results as given in patent publication US20230241188A1 (priority 2020, published 2023).
Where two headings read alike, the source gives them in different places.

Key:
[1] = target: Recombinant SARS-CoV-2 spike protein (Severe acute respiratory syndrome coronavirus 2, UniProt P0DTC2); type: biochemical
[2] = system: SARS-COV-2 R209112 strain
[3] = target: SARS-CoV-2 (2019-nCoV) Envelope Recombinant Protein (Severe acute respiratory syndrome coronavirus 2, UniProt P0DTC4); type: biochemical
[4] = system: SARS-COV-2 R209112 strain; type: cell-based
[5] = system: wild-type (WT) SARS-CoV-2 strain (EPI_ISL_578176); type: cell-based
envelope protein = envelope protein (Severe acute respiratory syndrome coronavirus 2, UniProt P0DTC4); type: biochemical, SARS-CoV-2
Chain of envelope protein (P0DTC4 whole entry): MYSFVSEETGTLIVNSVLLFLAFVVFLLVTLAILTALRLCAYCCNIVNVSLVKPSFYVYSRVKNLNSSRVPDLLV

[6] = system: SARS-COV-2 R209112 strain; assay: SARS-CoV-2 inactivation test, Vero cells, optical microscope observation; type: cell-based

Chain of SARS-CoV-2 (2019-nCoV) Envelope Recombinant Protein (P0DTC4 whole entry): as above

`CC(=O)N[C@@H](CS)C(=O)O` [Acetylcysteine, acetylcysteine] was tested, and the “TOXICITY (optical microscope observation)” value (“TOXICITY” below) (BGM cells) was “Nil”, the “comparative reduction of disulphide bonds, DTT alone vs DTT with Acetylcysteine (slope ratio)” value [1] was 42% and the “disulphide linkages reduced by Acetylcysteine” value [1] was 58%. The “viral inactivation test (RNA extraction), Δlog, V1” value [2] was 0.088 log, the “viral inactivation test (RNA extraction), Δlog, V2” value [2] was 0.224 log and the “envelope protein band on SDS-PAGE gel” value [3] was “did not disintegrate the protein”. For the same compound, the “effect (cytopathic effect at 7 days), in words” value [4] was “did not show any effect”, the “optical microscope observation of SARS-CoV-2 infection, V1” value [4] was “+” and the “optical microscope observation of SARS-CoV-2 infection, V2” value [4] was “+”. For the same compound, the “optical microscope observation of SARS-CoV-2 infection, V3” value [4] was “-”, the “optical microscope observation of SARS-CoV-2 infection, V4” value [4] was “-” and the “optical microscope observation of SARS-CoV-2 infection, V5” value [4] was “-”. For the same compound, the “TOXICITY” value (Vero cells) was “Nil”, the “viral inhibition (CPE, optical and Neutral Red cell staining)” value [5] was “no viral inhibition” and the “differential assay between Acetylcysteine and DTT (slope ratio)” value (envelope protein) was 60%. The “disulphide bonds reduced by Acetylcysteine before the addition of DTT” value (envelope protein) was 40%, the “optical microscope observation of SARS-CoV-2 infection, V1” value [6] was “+” and the “optical microscope observation of SARS-CoV-2 infection, V2” value [6] was “+”. The “optical microscope observation of SARS-CoV-2 infection, V3” value [6] was “- and +”, the “optical microscope observation of SARS-CoV-2 infection, V4” value [6] was “-” and the “optical microscope observation of SARS-CoV-2 infection, V5” value [6] was “-”. The “therapeutic effect (cytopathic effect at 5 days), in words” value [6] was “did not show any therapeutic effect”.

In the case of Bromelain, the “TOXICITY” value (BGM cells) is reported as “Nil” and the “TOXICITY” value (Vero cells) is reported as “Nil”.
